Results published in the supplement of paper PMC10331698.
± gives the standard deviation of the averaged measurements.

What was measured:
Experiment in all cases: LOEC (log10 uM (lowest observed effect concentration))
[1] = compound: NS(=O)(=O)C(F)(F)C(F)(F)C(F)(F)C(F)(F)C(F)(F)C(F)(F)C(F)(F)C(F)(F)F [Perfluorooctanesulfonamide]
Protocol: (§1)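 BioMAP Diversity Plus panel in human primary cell co-cultures, 4 concentrations in duplicate blinded samples. Responses are log10 fold change versus DMSO control, processed with tcpl v2.1.0. A hit is called when responses at any concentration exceed the cutoff (the larger of 3*bmad or log10(1.2)); the lowest observed effect concentration (modl_ga, log10 uM) is reported for hits.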

[2] = compound: O=C(O)C(F)(F)OC(F)(F)C(F)(F)OC(F)(F)C(F)(F)OC(F)(F)C(F)(F)C(F)(F)C(F)(F)F [Perfluoro-3,6,9-trioxatridecanoic acid]
Protocol: as §1

[3] = compound: O=C(O)C=C(C(F)(F)F)C(F)(F)F [3,3-Bis(trifluoromethyl)-2-propenoic acid]
Protocol: as §1

Perfluorononanoic acid = compound: O=C(O)C(F)(F)C(F)(F)C(F)(F)C(F)(F)C(F)(F)C(F)(F)C(F)(F)C(F)(F)F [Perfluorononanoic acid]
Protocol: as §1

[4] = compound: OCC(F)(F)OC(F)(F)C(F)(F)OC(F)(F)C(F)(F)OC(F)(F)CO [1H,1H,11H,11H-Perfluorotetraethylene glycol]
Protocol: as §1

Perfluoroundecanoic acid = compound: O=C(O)C(F)(F)C(F)(F)C(F)(F)C(F)(F)C(F)(F)C(F)(F)C(F)(F)C(F)(F)C(F)(F)C(F)(F)F [Perfluoroundecanoic acid]
Protocol: as §1

[5] = compound: CCNS(=O)(=O)C(F)(F)C(F)(F)C(F)(F)C(F)(F)C(F)(F)C(F)(F)C(F)(F)C(F)(F)F [N-Ethylperfluorooctanesulfonamide]
Protocol: as §1

3C Eselectin down
LOEC (log10 uM) [1]: 1.78 | LOEC (log10 uM) [2]: 1.78 | LOEC (log10 uM) [3]: 1.3

3C HLADR down
LOEC (log10 uM) [1]: 1.54 ± 0.34 | LOEC (log10 uM) [2]: 1.78 | LOEC (log10 uM) [3]: 1.78 | LOEC (log10 uM) (Perfluorononanoic acid): 1.78

3C ICAM1 down
LOEC (log10 uM) [1]: 1.78 | LOEC (log10 uM) [2]: 1.78

3C IL8 down
LOEC (log10 uM) [2]: 1.3

3C MCP1 down
LOEC (log10 uM) [1]: 1.78 | LOEC (log10 uM) [2]: 1.78 | LOEC (log10 uM) (Perfluorononanoic acid): 1.78

3C MIG down
LOEC (log10 uM) [1]: 1.78 | LOEC (log10 uM) [2]: 1.78

3C Proliferation down
LOEC (log10 uM) [4]: 1.54 ± 0.34 | LOEC (log10 uM) [1]: 1.3 | LOEC (log10 uM) (Perfluoroundecanoic acid): 0.845 | LOEC (log10 uM) [2]: 1.3 | LOEC (log10 uM) [5]: 1.78 | LOEC (log10 uM) (Perfluorononanoic acid): 1.78

3C SRB down
LOEC (log10 uM) [1]: 1.3 | LOEC (log10 uM) [2]: 1.3 | LOEC (log10 uM) [5]: 1.78 | LOEC (log10 uM) (Perfluorononanoic acid): 1.78

3C Thrombomodulin up
LOEC (log10 uM) [1]: 1.3

3C TissueFactor down
LOEC (log10 uM) [1]: 1.78 | LOEC (log10 uM) [2]: 1.3 | LOEC (log10 uM) (Perfluorononanoic acid): 1.78

3C VCAM1 down
LOEC (log10 uM) [1]: 1.78 | LOEC (log10 uM) [2]: 1.78 | LOEC (log10 uM) [3]: 1.54 ± 0.34 | LOEC (log10 uM) [5]: 1.78 | LOEC (log10 uM) (Perfluorononanoic acid): 1.78

3C uPAR down
LOEC (log10 uM) [1]: 1.78 | LOEC (log10 uM) [2]: 1.54 ± 0.34 | LOEC (log10 uM) (Perfluorononanoic acid): 1.78

4H MCP1 down
LOEC (log10 uM) [4]: 1.78 | LOEC (log10 uM) [1]: 1.78 | LOEC (log10 uM) [2]: 1.78 | LOEC (log10 uM) [5]: 1.78

4H Pselectin down
LOEC (log10 uM) [1]: 1.78 | LOEC (log10 uM) [2]: 1.78 | LOEC (log10 uM) [3]: 1.78 | LOEC (log10 uM) [5]: 1.54 ± 0.34

4H SRB down
LOEC (log10 uM) [1]: 1.3 | LOEC (log10 uM) [2]: 1.78 | LOEC (log10 uM) [5]: 1.78 | LOEC (log10 uM) (Perfluorononanoic acid): 1.78

4H VCAM1 down
LOEC (log10 uM) [1]: 1.78 | LOEC (log10 uM) [2]: 1.54 ± 0.34 | LOEC (log10 uM) [3]: 0.573 ± 0.39 | LOEC (log10 uM) [5]: 1.78

4H VEGFRII down
LOEC (log10 uM) [5]: 1.78

4H uPAR down
LOEC (log10 uM) [1]: 1.78 | LOEC (log10 uM) [2]: 1.78

BE3C EGFR down
LOEC (log10 uM) [1]: 1.78 | LOEC (log10 uM) (Perfluoroundecanoic acid): 0.845 | LOEC (log10 uM) [5]: 1.54 ± 0.34

BE3C ICAM1 down
LOEC (log10 uM) [1]: 1.78 | LOEC (log10 uM) (Perfluoroundecanoic acid): 0.845 | LOEC (log10 uM) [2]: 0.845 | LOEC (log10 uM) (Perfluorononanoic acid): 1.78

BE3C IL1a down
LOEC (log10 uM) [1]: 1.78 | LOEC (log10 uM) (Perfluoroundecanoic acid): 0.845 | LOEC (log10 uM) [2]: 0.845 | LOEC (log10 uM) [5]: 1.78 | LOEC (log10 uM) (Perfluorononanoic acid): 1.78

BE3C ITAC down
LOEC (log10 uM) [1]: 1.3 | LOEC (log10 uM) (Perfluoroundecanoic acid): 0.301 | LOEC (log10 uM) [2]: 0.845 | LOEC (log10 uM) [5]: 1.3 | LOEC (log10 uM) (Perfluorononanoic acid): 1.78

BE3C Keratin818 down
LOEC (log10 uM) [1]: 1.78 | LOEC (log10 uM) (Perfluoroundecanoic acid): 0.845 | LOEC (log10 uM) [2]: 0.845 | LOEC (log10 uM) [5]: 0.845 | LOEC (log10 uM) (Perfluorononanoic acid): 1.78

BE3C MIG down
LOEC (log10 uM) [1]: 1.78 | LOEC (log10 uM) (Perfluoroundecanoic acid): 0.845 | LOEC (log10 uM) [2]: 0.845 | LOEC (log10 uM) [5]: 1.78 | LOEC (log10 uM) (Perfluorononanoic acid): 1.78

BE3C MMP9 down
LOEC (log10 uM) [1]: 0.845 | LOEC (log10 uM) (Perfluoroundecanoic acid): -0.199 ± 0.71 | LOEC (log10 uM) [2]: 0.845 | LOEC (log10 uM) [5]: 0.845 | LOEC (log10 uM) (Perfluorononanoic acid): 1.78

BE3C PAI1 down
LOEC (log10 uM) [1]: 0.845 | LOEC (log10 uM) (Perfluoroundecanoic acid): -0.199 ± 0.71 | LOEC (log10 uM) [2]: 0.573 ± 0.39 | LOEC (log10 uM) [5]: 0.845 | LOEC (log10 uM) (Perfluorononanoic acid): 1.54 ± 0.34

BE3C SRB down
LOEC (log10 uM) [1]: 1.78 | LOEC (log10 uM) (Perfluoroundecanoic acid): 0.845 | LOEC (log10 uM) [2]: 0.845 | LOEC (log10 uM) [5]: 1.78 | LOEC (log10 uM) (Perfluorononanoic acid): 1.78

BE3C uPA down
LOEC (log10 uM) [1]: 1.78 | LOEC (log10 uM) (Perfluoroundecanoic acid): 0.845 | LOEC (log10 uM) [2]: 0.845 | LOEC (log10 uM) (Perfluorononanoic acid): 1.31 ± 0.66

BE3C uPAR down
LOEC (log10 uM) [1]: 1.78 | LOEC (log10 uM) (Perfluoroundecanoic acid): 0.845 | LOEC (log10 uM) [2]: 0.845 | LOEC (log10 uM) [5]: 1.3 | LOEC (log10 uM) (Perfluorononanoic acid): 1.78

BF4T CD90 down
LOEC (log10 uM) [1]: 1.78 | LOEC (log10 uM) [2]: 1.3

BF4T ICAM1 down
LOEC (log10 uM) [1]: 1.54 ± 0.34 | LOEC (log10 uM) (Perfluoroundecanoic acid): 0.845 | LOEC (log10 uM) [2]: 1.07 ± 0.32 | LOEC (log10 uM) [5]: 1.78 | LOEC (log10 uM) (Perfluorononanoic acid): 1.78

BF4T IL1a down
LOEC (log10 uM) [1]: 1.78 | LOEC (log10 uM) (Perfluoroundecanoic acid): 0.845 | LOEC (log10 uM) [2]: 1.3 | LOEC (log10 uM) [5]: 1.78 | LOEC (log10 uM) (Perfluorononanoic acid): 1.78

BF4T IL8 down
LOEC (log10 uM) [1]: 1.78 | LOEC (log10 uM) (Perfluorononanoic acid): 1.78

BF4T Keratin818 down
LOEC (log10 uM) [1]: 1.54 ± 0.34 | LOEC (log10 uM) (Perfluoroundecanoic acid): 0.845 | LOEC (log10 uM) [2]: 1.3 | LOEC (log10 uM) [5]: 1.54 ± 0.34 | LOEC (log10 uM) (Perfluorononanoic acid): 1.78

BF4T MCP1 down
LOEC (log10 uM) [4]: 1.3 | LOEC (log10 uM) [1]: 1.78 | LOEC (log10 uM) (Perfluoroundecanoic acid): 0.845 | LOEC (log10 uM) [2]: 1.07 ± 0.32 | LOEC (log10 uM) [5]: 1.3 | LOEC (log10 uM) (Perfluorononanoic acid): 1.3

BF4T MMP1 down
LOEC (log10 uM) (Perfluoroundecanoic acid): 0.845 | LOEC (log10 uM) [2]: 1.3 | LOEC (log10 uM) [5]: 1.78 | LOEC (log10 uM) (Perfluorononanoic acid): 1.78

BF4T MMP3 down
LOEC (log10 uM) [1]: 1.78 | LOEC (log10 uM) (Perfluoroundecanoic acid): 0.845 | LOEC (log10 uM) [2]: 1.07 ± 0.32 | LOEC (log10 uM) (Perfluorononanoic acid): 1.78

BF4T MMP9 down
LOEC (log10 uM) [1]: 1.3 | LOEC (log10 uM) (Perfluoroundecanoic acid): 0.845 | LOEC (log10 uM) [2]: 1.07 ± 0.32 | LOEC (log10 uM) [5]: 1.54 ± 0.34 | LOEC (log10 uM) (Perfluorononanoic acid): 1.78

BF4T PAI1 down
LOEC (log10 uM) [1]: 1.78 | LOEC (log10 uM) (Perfluoroundecanoic acid): 0.845 | LOEC (log10 uM) [2]: 1.3 | LOEC (log10 uM) (Perfluorononanoic acid): 1.78

BF4T SRB down
LOEC (log10 uM) [1]: 1.78 | LOEC (log10 uM) (Perfluoroundecanoic acid): 0.845 | LOEC (log10 uM) [2]: 1.3 | LOEC (log10 uM) [5]: 1.78 | LOEC (log10 uM) (Perfluorononanoic acid): 1.78

BF4T VCAM1 down
LOEC (log10 uM) [1]: 1.3 | LOEC (log10 uM) (Perfluoroundecanoic acid): 0.845 | LOEC (log10 uM) [2]: 0.845 | LOEC (log10 uM) [5]: 0.845 | LOEC (log10 uM) (Perfluorononanoic acid): 1.07 ± 0.32

BF4T uPA down
LOEC (log10 uM) [1]: 1.78 | LOEC (log10 uM) (Perfluoroundecanoic acid): 0.845 | LOEC (log10 uM) [2]: 1.3 | LOEC (log10 uM) (Perfluorononanoic acid): 1.78

BT Bcell Proliferation down
LOEC (log10 uM) [3]: 1.78

BT Bcell Proliferation up
LOEC (log10 uM) (Perfluorononanoic acid): 1.78

BT sIgG down
LOEC (log10 uM) [4]: 1.78 | LOEC (log10 uM) [1]: 1.54 ± 0.34 | LOEC (log10 uM) [2]: 1.78 | LOEC (log10 uM) [3]: 1.78 | LOEC (log10 uM) [5]: 1.54 ± 0.34

BT xIL17A down
LOEC (log10 uM) [1]: 1.78 | LOEC (log10 uM) [2]: 1.78 | LOEC (log10 uM) [3]: 1.78

BT xIL17F down
LOEC (log10 uM) [4]: 1.78 | LOEC (log10 uM) [1]: 1.78 | LOEC (log10 uM) [2]: 1.78 | LOEC (log10 uM) [3]: 0.573 ± 0.39 | LOEC (log10 uM) [5]: 1.54 ± 0.34

BT xTNFa down
LOEC (log10 uM) [4]: 1.78 | LOEC (log10 uM) [1]: 1.54 ± 0.34 | LOEC (log10 uM) [3]: 1.54 ± 0.34

CASM3C HLADR down
LOEC (log10 uM) [3]: 0.573 ± 0.39

CASM3C LDLR down
LOEC (log10 uM) [1]: 1.78 | LOEC (log10 uM) [2]: 1.78

CASM3C Proliferation down
LOEC (log10 uM) [1]: 1.78 | LOEC (log10 uM) [2]: 1.78 | LOEC (log10 uM) [3]: 1.78

CASM3C SRB down
LOEC (log10 uM) [1]: 1.78 | LOEC (log10 uM) [2]: 1.78

CASM3C uPAR down
LOEC (log10 uM) [1]: 1.78

IMphg IL1a down
LOEC (log10 uM) [2]: 1.54 ± 0.34

IMphg SRB down
LOEC (log10 uM) [1]: 1.78 | LOEC (log10 uM) [2]: 1.78

IMphg SRB.Mphg down
LOEC (log10 uM) [1]: 1.78 | LOEC (log10 uM) [2]: 1.78

KF3CT ICAM1 down
LOEC (log10 uM) [1]: 1.78 | LOEC (log10 uM) (Perfluoroundecanoic acid): 0.845 | LOEC (log10 uM) [2]: 1.3

KF3CT IL8 down
LOEC (log10 uM) [1]: 1.78 | LOEC (log10 uM) (Perfluoroundecanoic acid): 0.845
